Measured values taken from ChEMBL document CHEMBL1201862, “PubChem BioAssay data set” (2004).
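These data come from cells grown in 96-well plates and exposed to compound for 48 hours at five concentrations. The concentration for 50% growth inhibition is given as GI50.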 Calls of active or inactive are those of the source. No stated cut-off is given here; in the data, active = GI50 up to about 1.1 µM and inactive = higher.

Legend:
Assay in all cases: NCI anticancer screen, dose series, 48 h
MOLT-4 = tested on: MOLT-4
UACC-257 = tested on: UACC-257
ACHN = tested on: ACHN
NCI-H23 = tested on: NCI-H23
SW-620 = tested on: SW-620
786-0 = tested on: 786-0
RXF 393 = tested on: RXF 393
KM-20L2 = tested on: KM-20L2
SF-295 = tested on: SF-295
HCC 2998 = tested on: HCC 2998
NCI-H522 = tested on: NCI-H522
M14 = tested on: M14
SK-MEL-2 = tested on: SK-MEL-2
SF-268 = tested on: SF-268
SNB-75 = tested on: SNB-75
BT-549 = tested on: BT-549
T47D = tested on: T47D
A498 = tested on: A498
DU-145 = tested on: DU-145
MDA-MB-435 = tested on: MDA-MB-435

Measured: GI50

CCOc1ccc(/N=N/c2ccc3oc(=O)c(/C(C)=N/NC(=O)CC(=O)Nc4cccc(OC)c4)cc3c2)cc1
inactive: MOLT-4 3.56 µM | UACC-257 3.8 µM | ACHN 21.3 µM | NCI-H23 17.5 µM | SW-620 21.4 µM | 786-0 10.5 µM | RXF 393 17.3 µM | KM-20L2 > 31.6 µM | SF-295 19 µM | HCC 2998 15.6 µM | NCI-H522 21.4 µM | M14 16.4 µM | SK-MEL-2 20.8 µM | SF-268 13.3 µM

Cc1ccc(C2=CC(=O)c3ccccc3C2=O)n1-c1ccccc1
inactive: MOLT-4 26.1 µM | NCI-H23 > 100 µM | SW-620 > 100 µM | 786-0 > 100 µM | RXF 393 > 100 µM | KM-20L2 > 100 µM | SF-295 > 100 µM | SNB-75 > 100 µM | HCC 2998 > 100 µM | NCI-H522 > 100 µM | M14 > 100 µM | SF-268 > 100 µM

O=c1[nH]nc(Cc2ccc(Cl)cc2)n1/N=C/c1ccco1
inactive: BT-549 40.6 µM | MOLT-4 > 100 µM | T47D > 100 µM | UACC-257 > 100 µM | ACHN > 100 µM | NCI-H23 34.8 µM | SW-620 > 100 µM | 786-0 30.4 µM | RXF 393 26.5 µM | SF-295 46.6 µM | SNB-75 28.6 µM | HCC 2998 > 100 µM | A498 > 100 µM | DU-145 > 100 µM | MDA-MB-435 > 100 µM | NCI-H522 58.9 µM | M14 > 100 µM | SK-MEL-2 40.1 µM | SF-268 38.3 µM

CCCc1nnc2sc(COc3ccc(OCc4nn5c(CCC)nnc5s4)c(Cl)c3)nn12
inactive: BT-549 23.9 µM | MOLT-4 24.9 µM | T47D 2.78 µM | UACC-257 20.3 µM | ACHN 20.9 µM | NCI-H23 20.2 µM | SW-620 40.3 µM | 786-0 28.5 µM | RXF 393 27 µM | SF-295 20.8 µM | SNB-75 22.2 µM | HCC 2998 23.8 µM | A498 23.6 µM | DU-145 24.8 µM | MDA-MB-435 20.5 µM | NCI-H522 21.1 µM | M14 21.9 µM | SK-MEL-2 42.1 µM | SF-268 23 µM

CCCCC1(C)C=C/C(=C2/C(=O)O/C(=C\C(=O)O)C2=O)O1 (stereo unspecified)
inactive: MOLT-4 > 100 µM | UACC-257 > 100 µM | ACHN > 100 µM | NCI-H23 > 100 µM | SW-620 > 100 µM | 786-0 > 100 µM | KM-20L2 > 100 µM | SF-295 > 100 µM | SNB-75 > 100 µM | A498 > 100 µM | M14 > 100 µM | SK-MEL-2 > 100 µM

CCOC(=O)/C(C#N)=C\C=C1/C=CN=C2NCCN21
inactive: MOLT-4 > 100 µM | UACC-257 > 100 µM | ACHN 80.9 µM | NCI-H23 > 100 µM | SW-620 > 100 µM | 786-0 > 100 µM | RXF 393 99.5 µM | KM-20L2 > 100 µM | SF-295 > 100 µM | SNB-75 14.4 µM | HCC 2998 > 100 µM | NCI-H522 > 100 µM | M14 > 100 µM | SK-MEL-2 > 100 µM | SF-268 > 100 µM

CC(C)(C)[Si](C)(C)O/N=C\c1ccc(O[Si](C)(C)C(C)(C)C)cc1
inactive: MOLT-4 41.3 µM | UACC-257 > 100 µM | ACHN 37.6 µM | NCI-H23 > 100 µM | SW-620 > 100 µM | 786-0 38.5 µM | RXF 393 24.5 µM | KM-20L2 44.7 µM | SF-295 52.5 µM | SNB-75 72.1 µM | HCC 2998 36.8 µM | A498 52.4 µM | M14 62.1 µM | SK-MEL-2 > 100 µM | SF-268 49.5 µM
